Test results as given in publication PMC8653689, “Phenanthrotriazine Derivatives Containing Arylidine Hydrazone Moieties as Novel Potential c-Met Inhibitors with Anticancer Effect” (Iranian Journal of Pharmaceutical Research : IJPR, 2021).
Where two headings read alike, the source gives them in different places.

Legend:
[1] = system: MCF-7 (human breast adenocarcinoma) cells; assay: MTT reduction assay, antiproliferative effect, MCF-7; type: cell-based
Excerpt: (§1) Fetal bovine serum (FBS), phosphate-buffered saline (PBS), RPMI-1640, and trypsin were obtained from Biosera (Ringmer, UK). Penicillin/streptomycin and MTT (3-(4,5-dimethylthiazol-2-yl)-2,5-diphenyltetrazolium bromide) were from Sigma-Aldrich (Saint Louis, MO, USA) and Invitrogen (San Diego, CA, USA), respectively. Dimethyl sulfoxide and doxorubicin were purchased from Merck (Darmstadt, Germany) and EBEWE Pharma (Unterach, Austria), respectively. The cells were acquired from Iranian Biological Resource Center, Tehran, Iran (HT-29 (human colorectal adenocarcinoma), MCF-7 (human breast adenocarcinoma) and Vero (African green monkey kidney) cells) or National Cell Bank of Iran, Pasteur Institute, Tehran, Iran (MOLT-4 (lymphoblastic leukemia) cells).
(§2) MTT reduction assay was employed to assess the viability of cancer cells after being treated with synthesized derivatives as previously described ([34]). The cells were plated in flat-bottom 96-well microplates, at densities of 3 × 10^4 cells/mL (100 μL in each well) and then incubated overnight at 37 °C. Three to four different concentrations of synthesized derivatives (in the range of 1 to 100 μM) were placed in triplicate wells and the plates were incubated for 72 h at 37 °C. […] At the end of the incubation time, 80 μL of the media in each well was replaced with the same amount of growth medium without phenol red containing 0.5 mg/mL of MTT. Cells were further incubated at 37 °C for 4 h and then 80 μL of the solution of each well was removed. The addition of DMSO (200μL) to each well solubilized the formazan crystals formed inside the viable cells after 1-hour incubation followed by 30-minute shaking. The optical absorbance of the final solution was determined at 570 nm using a Bio-Tek multimode plate reader (Synergy HTX). The cell viability was calculated compared to untreated control cells by comparison of absorbance measurements. CurveExpert software (version 1.34 for Windows) was used to determine the IC50 value for each compound. To confirm the results, every experiment was repeated 3 to 5 times.

[2] = system: MOLT-4 (lymphoblastic leukemia) cells; assay: MTT reduction assay, antiproliferative effect, MOLT-4; type: cell-based, human; settings: read-out: MOLT-4 IC50
Excerpt: as §1, §2

[3] = system: HT-29 (human colorectal adenocarcinoma) cells; assay: MTT reduction assay, antiproliferative effect, HT-29; type: cell-based; settings: for IC50: read-out: HT-29 IC50; for viability at 25 µM: cell line not named in the sentence (NA in HT-29, MCF-7, MOLT-4 in Table 1), read-out: Cell viability at the highest tested concentration
Excerpt: as §1, §2

[4] = system: Vero (African green monkey kidney) cells; assay: MTT reduction assay, Vero normal cells; type: cell-based; settings: read-out: Vero IC50
Excerpt: as §1, §2

[5] = system: MCF-7 cells; assay: Hoechst 33258 staining, detection of apoptosis; type: cell-based, human; settings: MCF-7, 72 h treatment, especially at 25 µM
Method: Hoechst 33258 was used as a DNA stain to detect apoptosis in cells. MCF-7 cells were seeded in a 6-well plate at a density of 5 × 10^4 cells/mL (2 mL per well) and incubated for 24 h. The whole medium was removed and different concentrations of test compounds 9g, 9j, 9k, and 9l diluted in 2 mL medium were placed in the different wells and incubated for 72 h. Afterward, the medium was removed again, 1 mL of 4% cold freshly prepared paraformaldehyde (PFA) was added, and cells were incubated for 20 min at room temperature. The cells were then washed 2 times with 1 ml PBS and incubated with 1 mL Hoechst 33258 2.5 µg/mL for 30 min in the dark at room temperature ([36], [37]). In the end, the cells were washed with 1 mL PBS and imaged with a fluorescence microscope.
Figure 3 Detection of apoptosis in MCF-7 cells by Hoechst staining. Hoechst 33258 was used as a DNA stain to detect apoptosis in MCF-7 cells treated with synthesized compounds. The cells were seeded in a 6-well plates and treated with different concentrations of test compounds 9g, 9j, 9k and 9l for 72 h. After removing the whole medium, 4% cold freshly prepared paraformaldehyde (PFA) was added for 20 min at room temperature, the cells were then washed twice with PBS, and incubated with Hoechst 33258 2.5 µg/mL for 30 min at room temperature in the dark. Finally, the cells were washed with PBS again and the plates were imaged with a fluorescence microscope

[6] = system: MCF-7 cells; assay: Cell cycle analysis, propidium iodide/RNase flow cytometric assay; type: cell-based, human; settings: 48 h; for Effect on number of cells in G0/G1: MCF-7, 10 and 25 µM
Method: Alterations of the cell cycle were determined by the propidium iodide (PI)-RNase flow cytometric method ([35]). MCF-7 cells were used to determine the percentage of cells in each phase of the cell cycle. In 6-well plates, 2 × 10^5 cells were seeded in each well and incubated at 37 °C for 48 h. Afterward, they were treated for 48 h with derivatives 9g, 9j, 9k and 9l at 10 and 25 μM. The cells were then collected after trypsinization, washed twice with PBS, and fixed by 5 mL ethanol 70% for at least 24 h at -20 °C. After fixation, MCF-7 cells were washed with PBS two times and stained with PI 20 µg/mL and RNase 200 µg/mL for 30 min in the dark at room temperature. A FACS Calibur ﬂow cytometer (BD Biosciences) was used for the assays and 20,000 events were analyzed. The number of cells distributed in sub-G1, G0/G1, S, and G2/M were determined by CellQuest software (BD, USA).
Figure 2 Representative cell cycle histograms of MCF-7 cells treated with synthesized derivatives. Analysis of the percentage of cells in different phases of cell cycle was performed using propidium iodide (PI)-RNase flow cytometric assay. MCF-7 cells were seeded in 6-well microplates and treated with synthesized derivatives for 48 h. The cells were then collected and fixed in 70% ethanol overnight at -20 °C. In the end, the cells were stained with DNA staining solution (PI 20 µg/mL and RNase 200 µg/mL) for 30 min and 20,000 events were analyzed by a FACS Calibur ﬂow cytometer (BD Biosciences). Representative histograms of cells treated with compounds 9g, 9j, 9k and 9l are shown

[7] = Homo sapiens, MCF7, 72 h, read-out: MCF-7 IC50, MTT, 72 h incubation
[8] = Chlorocebus sabaeus, Vero, 72 h

N.N.[Cl][Pt][Cl] [Cisplatin, reference compound]
IC50 ([1]; MTT, 72 h incubation, read-out: MCF-7 IC50): 8.1 ± 2.6 µM | IC50 ([2]; MTT, 72 h incubation): 2.9 ± 0.2 µM | IC50 ([3]; MTT, 72 h incubation): 24.6 ± 3.6 µM | IC50 ([4]; MTT, 72 h incubation, normal cells): 7.8 ± 1 µM

C(=NNc1nnc2c3ccccc3c3ccccc3c2n1)c1ccccc1 [Compound 9a, 3-(2-benzylidenehydrazinyl)phenanthro [9,10-e][1,2,4]triazine]
viability at 25 µM ([3]; Homo sapiens, MTT): ≥ 50% | melting point: 286 to 290 °C

COc1ccccc1C=NNc1nnc2c3ccccc3c3ccccc3c2n1 [Compound 9b, 3-(2-(2-methoxybenzylidene)hydrazinyl)phenanthro[9,10-e][1,2,4]triazine]
IC50 [1, 7]: 15.2 ± 3.1 µM | IC50 ([2]; Homo sapiens, MOLT-4, 72 h): 7.8 ± 1.8 µM | IC50 ([3]; Homo sapiens, HT-29, 72 h): 20.1 ± 3 µM | IC50 [4, 8]: 13 ± 1.8 µM | melting point: 252 to 254 °C

Oc1cccc(C=NNc2nnc3c4ccccc4c4ccccc4c3n2)c1 [Compound 9e, 3-((2-(phenanthro[9,10-e][1,2,4]triazin-3-yl)hydrazono)methyl)phenol]
IC50 [1, 7]: 9.3 ± 1.6 µM | IC50 ([2]; Homo sapiens, MOLT-4, 72 h): 4.4 ± 1.1 µM | IC50 ([3]; Homo sapiens, HT-29, 72 h): 15.2 ± 2.1 µM | IC50 [4, 8]: 30 ± 6 µM | melting point: 219 to 223 °C

Oc1cccc(C=NNc2nnc3c4ccccc4c4ccccc4c3n2)c1O [Compound 9f, 3-((2-(phenanthro[9,10-e][1,2,4]triazin-3-yl)hydrazono)methyl)benzene-1,2-diol]
viability at 25 µM ([3]; Homo sapiens, MTT): ≥ 50% | melting point: 329 to 333 °C

O=[N+]([O-])c1ccccc1C=NNc1nnc2c3ccccc3c3ccccc3c2n1 [Compound 9g, 3-(2-(2-nitrobenzylidene)hydrazinyl)phenanthro[9,10-e][1,2,4]triazine]
IC50 [1, 7]: 6.2 ± 1.3 µM | Apoptosis induction by Hoechst 33258 staining [5]: showed signs of apoptosis | Percentage of cells in G0/G1 ([6]; MCF-7, 10 µM): 69.25 ± 2.1 | Percentage of cells in G2/M ([6]; MCF-7, 10 µM): 18.58 ± 2.2 | Percentage of cells in S ([6]; MCF-7, 10 µM): 8.79 ± 1.3 | Percentage of cells in Sub G1 ([6]; MCF-7, 10 µM): 1.35 ± 0.3 | Effect on cells in sub-G1 phase ([6]; MCF-7, 25 µM): increased the cells in the sub-G1 phase | Percentage of cells in G0/G1 ([6]; MCF-7, 25 µM): 74.76 ± 4.9 | Percentage of cells in G2/M ([6]; MCF-7, 25 µM): 13.97 ± 3.3 | Percentage of cells in S ([6]; MCF-7, 25 µM): 7.58 ± 1.9 | Percentage of cells in Sub G1 ([6]; MCF-7, 25 µM): 1.82 ± 0.3 | Effect on number of cells in G0/G1 [6]: significantly enhanced the number of cells in the G0/G1 | IC50 ([2]; Homo sapiens, MOLT-4, 72 h): 5.4 ± 1 µM | IC50 ([3]; Homo sapiens, HT-29, 72 h): 16.7 ± 2.2 µM | IC50 [4, 8]: 11.1 ± 1 µM | melting point: 225 to 229 °C

O=[N+]([O-])c1cccc(C=NNc2nnc3c4ccccc4c4ccccc4c3n2)c1 [Compound 9h, 3-(2-(3-nitrobenzylidene)hydrazinyl)phenanthro[9,10-e][1,2,4]triazine]
IC50 [1, 7]: 10.4 ± 2.9 µM | IC50 ([2]; Homo sapiens, MOLT-4, 72 h): 3.9 ± 0.6 µM | IC50 ([3]; Homo sapiens, HT-29, 72 h): 12.2 ± 4.1 µM | IC50 [4, 8]: 19.4 ± 6.8 µM | melting point: 216 to 219 °C

O=[N+]([O-])c1ccc(C=NNc2nnc3c4ccccc4c4ccccc4c3n2)cc1 [Compound 9i, 3-(2-(4-nitrobenzylidene)hydrazinyl)phenanthro[9,10-e][1,2,4]triazine]
IC50 [1, 7]: 17.7 ± 1.7 µM | IC50 ([2]; Homo sapiens, MOLT-4, 72 h): 7.5 ± 0.1 µM | IC50 ([3]; Homo sapiens, HT-29, 72 h): 7.6 ± 0.8 µM | IC50 [4, 8]: 7.4 ± 1.4 µM | melting point: 240 to 244 °C

N#Cc1ccc(C=NNc2nnc3c4ccccc4c4ccccc4c3n2)cc1 [Compound 9j, 4-((2-(phenanthro[9,10-e][1,2,4]triazin-3-yl)hydrazono)methyl)benzonitrile]
IC50 [1, 7]: 5.8 ± 0.7 µM | Apoptosis induction by Hoechst 33258 staining [5]: showed signs of apoptosis | Percentage of cells in G0/G1 ([6]; MCF-7, 10 µM): 71.40 ± 2.2 | Percentage of cells in G2/M ([6]; MCF-7, 10 µM): 17.95 ± 3.0 | Percentage of cells in S ([6]; MCF-7, 10 µM): 9.59 ± 2.0 | Percentage of cells in Sub G1 ([6]; MCF-7, 10 µM): 1.08 ± 0.2 | Percentage of cells in G0/G1 ([6]; MCF-7, 25 µM): 73.10 ± 3.0 | Percentage of cells in G2/M ([6]; MCF-7, 25 µM): 17.51 ± 2.6 | Percentage of cells in S ([6]; MCF-7, 25 µM): 8.09 ± 2.0 | Percentage of cells in Sub G1 ([6]; MCF-7, 25 µM): 1.30 ± 0.4 | Effect on number of cells in G0/G1 [6]: significantly enhanced the number of cells in the G0/G1 | IC50 ([2]; Homo sapiens, MOLT-4, 72 h): 5.5 ± 0.1 µM | IC50 ([3]; Homo sapiens, HT-29, 72 h): 15.3 ± 1.5 µM | IC50 [4, 8]: 11.3 ± 2.1 µM | melting point: 231 to 234 °C

C(=NNc1nnc2c3ccccc3c3ccccc3c2n1)c1ccc[nH]1 [Compound 9k, 3-(2-((1H-pyrrol-2-yl)methylene)hydr-zinyl)phenanthro[9,10-e][1,2,4]triazine]
IC50 [1, 7]: 4.5 ± 0.16 µM | IC50 ([1]; read-out: MCF-7 IC50, MTT, 72 h incubation): 4.7 ± 0.3 µM | Apoptosis induction by Hoechst 33258 staining [5]: showed signs of apoptosis | Percentage of cells in G0/G1 ([6]; MCF-7, 10 µM): 77.30 ± 2.8 | Percentage of cells in G2/M ([6]; MCF-7, 10 µM): 16.63 ± 2.5 | Percentage of cells in S ([6]; MCF-7, 10 µM): 4.63 ± 0.7 | Percentage of cells in Sub G1 ([6]; MCF-7, 10 µM): 1.31 ± 0.1 | Effect on cells in sub-G1 phase ([6]; MCF-7, 25 µM): increased the cells in the sub-G1 phase | Percentage of cells in G0/G1 ([6]; MCF-7, 25 µM): 77.42 ± 3.7 | Percentage of cells in G2/M ([6]; MCF-7, 25 µM): 16.13 ± 2.9 | Percentage of cells in S ([6]; MCF-7, 25 µM): 4.68 ± 1.2 | Percentage of cells in Sub G1 ([6]; MCF-7, 25 µM): 1.69 ± 0.4 | Effect on number of cells in G0/G1 [6]: significantly enhanced the number of cells in the G0/G1 | IC50 ([2]; Homo sapiens, MOLT-4, 72 h): 1.7 ± 0.2 µM | IC50 ([3]; Homo sapiens, HT-29, 72 h): 14.3 ± 2.8 µM | IC50 [4, 8]: 95.4 ± 12.4 µM | melting point: 210 to 214 °C

COc1cccc2c1C(=O)c1c(O)c3c(c(O)c1C2=O)C[C@@](O)(C(=O)CO)C[C@@H]3O[C@H]1C[C@H](N)[C@H](O)[C@H](C)O1 [Doxorubicin, reference compound]
IC50 ([1]; Homo sapiens, MCF7, MTT, 72 h incubation, read-out: MCF-7 IC50): 0.066 ± 0.007 µM | IC50 ([2]; Homo sapiens, MOLT-4, MTT, 72 h incubation): 0.017 ± 0.001 µM | IC50 ([3]; Homo sapiens, HT-29, MTT, 72 h incubation): 0.409 ± 0.038 µM | IC50 ([4]; Chlorocebus sabaeus, Vero, MTT, 72 h incubation, normal cells): 0.926 ± 0.031 µM
